What all share (format): cell-based
Experiment [1] concerns A549/ATCC. Briefly: NCI-60 one-dose SRB screening. To be noted: Homo sapiens, Non-Small Cell Lung Cancer, 10 µM one dose, 48 h, read-out: growth percentage.
For experiment [2], the system named is CCRF-CEM. Briefly: NCI-60 one-dose SRB screening. As to conditions: Homo sapiens, Leukemia, 10 µM one dose, 48 h, read-out: growth percentage.
The test system of experiment [3] is DU-145. Nature of the experiment: NCI-60 one-dose SRB screening. To be noted: Homo sapiens, DU-145, Prostate Cancer, 10 µM one dose, 48 h, read-out: growth percentage.
For experiment [4], the system named is HCC-2998. Briefly: NCI-60 one-dose SRB screening. To be noted: Homo sapiens, HCC-2998, Colon Cancer, 10 µM one dose, 48 h, read-out: growth percentage.
The test system of experiment [5] is HCT-116. Nature of the experiment: NCI-60 one-dose SRB screening. To be noted: Homo sapiens, HCT-116, Colon Cancer, 10 µM one dose, 48 h, read-out: growth percentage.
The test system of experiment [6] is HOP-62. Briefly: NCI-60 one-dose SRB screening. As to conditions: Homo sapiens, HOP-62, Non-Small Cell Lung Cancer, 10 µM one dose, 48 h, read-out: growth percentage.
Experiment [7] has as its system HS 578T. Nature of the experiment: NCI-60 one-dose SRB screening. To be noted: Homo sapiens, Breast Cancer, 10 µM one dose, 48 h, read-out: growth percentage.
Experiment [8] concerns MALME-3M. Nature of the experiment: NCI-60 one-dose SRB screening. As to conditions: Homo sapiens, Melanoma, 10 µM one dose, 48 h, read-out: growth percentage.
The test system of experiment [9] is MDA-MB-231/ATCC. Briefly: NCI-60 one-dose SRB screening. To be noted: Homo sapiens, Breast Cancer, 10 µM one dose, 48 h, read-out: growth percentage.
The test system of experiment [10] is MDA-MB-435. Briefly: NCI-60 one-dose SRB screening. To be noted: Homo sapiens, MDA-MB-435, Melanoma, 10 µM one dose, 48 h, read-out: growth percentage.
Experiment [11] concerns NCI-H322M. Nature of the experiment: NCI-60 one-dose SRB screening. As to conditions: Homo sapiens, Non-Small Cell Lung Cancer, 10 µM one dose, 48 h, read-out: growth percentage.
Experiment [12] concerns RPMI-8226. Nature of the experiment: NCI-60 one-dose SRB screening. As to conditions: Homo sapiens, RPMI-8226, Leukemia, 10 µM one dose, 48 h, read-out: growth percentage.
The subject of experiment [13] is SF-295. Nature of the experiment: NCI-60 one-dose SRB screening. To be noted: Homo sapiens, SF-295, CNS Cancer, 10 µM one dose, 48 h, read-out: growth percentage.
Experiment [14] has as its system SK-OV-3. Briefly: NCI-60 one-dose SRB screening. As to conditions: Homo sapiens, SK-OV-3, Ovarian Cancer, 10 µM one dose, 48 h, read-out: growth percentage.
In experiment [15] the test system is SW-620. Nature of the experiment: NCI-60 one-dose SRB screening. As to conditions: Homo sapiens, SW-620, Colon Cancer, 10 µM one dose, 48 h, read-out: growth percentage.
The test system of experiment [16] is NCI-59 human cancer cell lines. Briefly: NCI-60 one-dose SRB screening, full panel and subpanels. To be noted: for activity at 10 µM / inhibition at 10 µM: Homo sapiens; for activity at 10 µM: mean over the full panel, 10 µM one dose, 48 h, SRB, read-out: growth percentage, Mean; for inhibition at 10 µM: read-out: mean growth inhibition % (MGI%, GI%). The protocol:
The structures of the synthesized compounds 6a–h, 12a–c, 11, 13a–c, and 14a–c were submitted to the National Cancer Institute’s Developmental Therapeutics Program (NCI-DTP), and all of them were selected for preliminary in vitro anticancer activity screening against NCI-59 human cancer cell lines at a concentration of 10 µM, using the sulforhodamine B (SRB) assay to determine the growth percentage and cell viability.
The in vitro NCI-60 cell line screening assay was conducted at the National Cancer Institute (NCI), Bethesda, USA against 59 cancer cell lines representing 9 types of cancers, as reported earlier. Briefly, the human cancer cell lines were grown in RPMI 1640 medium containing 5% fetal bovine serum and 2 mM L-glutamine and inoculated into 96-well microtiter plates in 100 μL (5000 to 40,000 cells/well). Then, the plates were incubated at 37 °C, 5% CO2, 95% air, and 100% relative humidity for 24 h. After that, two plates of each cell line were fixed in situ with TCA, to represent cell population at time zero (Tz). The tested compounds were dissolved in DMSO at 400-fold and added so that the final concentration became 10 μM. The plates were then incubated for an additional 48 h followed by the addition of cold TCA to terminate the assay in case of adherent cells. Then, the cells were fixed in situ by cold 50% (w/v) TCA (50 μL; final concentration, 10% TCA) and incubated for 1 h at 4 °C. After discarding the supernatant, the plates were washed 5 times with tap water and air dried. Sulforhodamine B (SRB) solution (100 μL) at 0.4% (w/v) in 1% HOAc was added to each well, and plates were incubated for 10 min. at rt. Then, washing with 1% acetic acid was conducted 5 times to remove the unbound dye followed by air drying. After that, 10 mM trizma base was added to solubilize the bound stain, and the absorbance was read on an automated plate reader at a wavelength of 515 nm. On the other hand, the methodology for suspension cells was the same except that 50 μL of 80% TCA (final concentration, 16% TCA) was gently added to terminate the assay by fixing settled cells at the bottom of the wells. Percentage growth inhibition (GI%) was calculated as follows:
Growth percentage=Ti (test growth in the presence of compound at 10 µM )−Tz (time zero)/C (control growth)−Tz (time zero)×100 for Ti ≥ Tz;
Growth percentage=Ti (test growth in the presence of compound at 10 µM )−Tz (time zero)/Tz (time zero)×100 for Ti < Tz.
where values of 100, 40, 0, −40, and −100 mean no GI, 60% GI, no net G, 40% lethality, and all cells are dead, respectively.
Data are expressed as a one-dose mean graph of growth percentages including the mean, delta, and range.

Each structure is given as a SMILES string.

The values that follow come from PMC8880564, “Design, Synthesis, and Biological Evaluation of a Novel VEGFR-2 Inhibitor Based on a 1,2,5-Oxadiazole-2-Oxide Scaffold with MAPK Signaling Pathway Inhibition” (Pharmaceuticals, 2022).

`Cc1nn(-c2ccc(Br)cc2)c2nc(CCl)[nH]c(=O)c12` [13c]: the activity at 10 µM amounted to 96.9% in experiment [1]; 83.7% in experiment [2]; 110% in [3]; 105% in [4]; 98.3% in experiment [5]; 98.5% in experiment [6]. Moreover, the activity at 10 µM was 108% in [7]; -9.8% in [8]; 94.1% in [9]; 101% in experiment [10]; 104% in experiment [11]; -53.9% in experiment [12]. The activity at 10 µM in experiment [13] was determined as 100%; in experiment [14], 104%; in [15], 110%; in [16], 88.3%.

With `O=c1[nH]c(CNc2ccc(NCc3c(-c4ccccc4)no[n+]3[O-])cc2)nc2c1cnn2-c1ccccc1` [14a, 3-(((4-(((4-oxo-1-phenyl-4,5-dihydro-1H-pyrazolo[3,4-d]pyrimidin-6-yl)methyl)amino)phenyl)amino)methyl)-4-phenyl-1,2,5-oxadiazole 2-oxide], the activity at 10 µM in experiment [1] amounted to 63.8%; in [2], 57.9%; in [3], 74.6%; in experiment [4] it was 84.4%; in [5], 49.6%; in [6], 105%. The activity at 10 µM in experiment [7] worked out at 85.8%; in [8], 63.6%; in experiment [9], 72.5%; in experiment [10], 70.7%; in [11], 80.2%; in experiment [12] it was 61.9%. The activity at 10 µM in [13] stood at 71.8%; in [14], 60.6%; in [15] it was 92.8%; in experiment [16] it was 72.1%. The inhibition at 10 µM in experiment [16] (full NCI-59 panel, 10 µM) was found to be 27.9%.

Consider `Cc1nn(-c2ccccc2)c2nc(CNc3ccc(NCc4c(-c5ccccc5)no[n+]4[O-])cc3)[nH]c(=O)c12` [14b, 3-(((4-(((3-methyl-4-oxo-1-phenyl-4,5-dihydro-1H-pyrazolo[3,4-d]pyrimidin-6-yl)methyl)amino)phenyl)amino)methyl)-4-phenyl-1,2,5-oxadiazole 2-oxide], for which the activity at 10 µM came out at 74.3% in experiment [1]; 78.8% in experiment [2]; 90.7% in [3]; 111% in [4]; 79% in [5]; 110% in [6]. The activity at 10 µM in experiment [7] came out at 104%; in experiment [8], 74.1%; in experiment [9], 82.7%; in [10], 91.6%; in [11], 89%; in experiment [12], 79%. For the same compound, the activity at 10 µM in experiment [13] is 103%; in experiment [14] it was 85.4%; in experiment [15] it was 110%; in experiment [16] it was 91.8%. In experiment [16] (full NCI-59 panel, 10 µM), the inhibition at 10 µM is 8.22%.

With `Cc1nn(-c2ccc(Br)cc2)c2nc(CNc3ccc(NCc4c(-c5ccccc5)no[n+]4[O-])cc3)[nH]c(=O)c12` [14c, 3-(((4-(((1-(4-bromophenyl)-3-methyl-4-oxo-4,5-dihydro-1H-pyrazolo[3,4-d]pyrimidin-6-yl)methyl)amino)phenyl)amino)methyl)-4-phenyl-1,2,5-oxadiazole 2-oxide], the activity at 10 µM in experiment [1] worked out at 97.4%; in experiment [2], 105%; in [3] it was 107%; in experiment [4], 112%; in experiment [5], 93.8%; in [6], 116%. In addition, the activity at 10 µM came to 108% in experiment [7]; 92.5% in experiment [8]; 96.5% in [9]; 101% in experiment [10]; 104% in experiment [11]; 112% in experiment [12]. Further, the activity at 10 µM was 115% in experiment [13], 107% in experiment [14], 111% in experiment [15] and 103% in [16]. For the same compound, the “enhancement of the growth percentage (mean)” value in experiment [16] (full NCI-59 panel, 10 µM) was 3.35%.

Consider `Nc1ccc(NCc2c(-c3ccccc3)no[n+]2[O-])cc1` [compound 11, 3-(((4-aminophenyl)amino)methyl)-4-phenyl-1,2,5-oxadiazole 2-oxide], for which the activity at 10 µM came out at 95.1% in [1]; 83.4% in experiment [2]; 112% in experiment [3]; 118% in experiment [4]; 98.4% in [5]; 136% in experiment [6]. Also, the activity at 10 µM in experiment [7] amounted to 109%; in experiment [8], 100%; in [9], 104%; in experiment [10], 90.2%; in experiment [11] it was 103%; in [12] it was 97.5%. For the same compound, the activity at 10 µM in experiment [13] is 117%; in [14] it was 105%; in [15], 115%; in [16], 107%.

In general, inhibition refers to the relative decrease from the control value, in per cent.
